Measurements as given in US7507803B2, “Optimized multi-epitope constructs and uses thereof” (priority 2002, dated 2009).
Like-named read-outs stand apart in the source and are kept apart here. Ends that are not written are not given here.

B1: HBV30K: lead 30 epitope HBV CTL vaccine epigene construct, SEQ ID NO: 71/72 (nucleic acid)
DNA: ATGGGAATGCAGGTGCAAATACAGTCTCTCTTCCTTTTGCTTCTCTGGGTTCCAGGATCACGGGGCTTCTTGCTTAGCTTGGGCATCCACCTAAATGCTGCTGCAAAATACACATCTTTTCCTTGGCTCCTTAATGCCGCCGCTAGGTTTTCATGGCTGAGTCTGCTAGTACCTTTCAATGCGGCTTTCCCACATTGCCTAGCTTTTAGCTATATGAAAGCTGCTTTAGTCGTGGACTTTTCACAGTTTAGCAGAGGAGCAATCCTGCTGCTATGTCTGATATTCCTTCTAAACGCAGCAGCCCACACACTCTGGAAAGCTGGTATCCTTTACAAGAAAGCCTGGATGATGTGGTATTGGGGACCCAGCCTCTACAAAGCATACCCTGCCCTGATGCCACTATACGCATGCATTGGCGCGGCAGCCTGGTTATCCCTTTTAGTACCGTTTGTCAACGCCGCAGCGGGATTTCTATTAACCAGAATCCTGACGATTAATGCTGCCGCCATTCCGATCCCAAGTTCCTGGGCATTCAAAGCAGCCGCGGAGTATCTGGTTTCATTTGGCGTATGGAACCTGCCAAGCGACTTCTTTCCTTCTGTTAAGGCCGCTGCTTTCCTCCCCTCCGATTTCTTTCCATCGGTGAAAGCCGCTGCCGACCTCCTTGATACCGCGAGCGCTCTGTACAACTCGTGGCCAAAATTCGCAGTTCCAAACCTAAAAGCCGCCGCCAGTGCCATTTGTTCCGTGGTAAGGAGAAAATTATCACTCGACGTGTCCGCAGCATTTTATAACGCTGCTGCAAAGTTTGTCGCAGCATGGACATTGAAGGCTGCAGCGAAAGCAGCAAATGTATCAATACCCTGGACCCACAAGGGTGCAGCCGGGCTGTCTAGGTATGTGGCGAGGCTAAACGCCGCCGCCTCAACACTGCCTGAGACTACTGTCGTGAGACGCAAACACCCTGCCGCAATGCCCCACCTGCTGAAAGCAGCCGCACGATGGATGTGCCTCAGAAGATTCATAATAAACGCTTCTTTCTGTGGGTCACCCTACAAAGCCGCTTACATGGACGATGTGGTCCTCGGAGTGAATGCCCTCTGGTTCCATATCAGCTGCCTGACATTCAAGGCAGCCGCCACCCCCGCTCGTGTGACAGGAGGTGTCTTCAAAGCCGCGGCACTGACTTTCGGTCGGGAAACTGTATTGGAATATAAGCAGGCCTTCACATTCTCCCCAACATACAAGTGA
modifications: Hepatitis B Virus

Tests used:
[1] = tested on: HLA supertype alleles; assay type: binding, human
[2] = tested on: HLA transgenic mice; test: CTL priming in HLA transgenic mice after DNA immunization (in situ IFNγ ELISA or chromium release)
[3] = tested on: HLA-A2 transgenic mice; test: IFN-γ ELISPOT CTL responses after DNA immunization; assay type: in vivo, mouse; conditions: mice immunized with GCR-5835
[4] = tested on: H2^bxd mice; test: CTL response after peptide/IFA immunization, in situ ELISA; assay type: in vivo, mouse; conditions: peptide/IFA immunization of H2^bxd mice
[5] = tested on: PBL from individuals with acute or chronic HBV infection; conditions: independently reported (Sobao et al. 2001); cited from earlier work
[6] = biological target: HLA-A*0101 (Homo sapiens, UniProt P04439, A114D/A174V/A182V/D101N/D185E/E176A/E190D/L180R/Q94H/R68K/S129P/T187R/V100A/V91M/W191G); test: HLA class I peptide binding assay (purified HLA, IC50)
[7] = A2, A3 or B7 supertype, five most common members
[8] = A1 or A24 supertype, three related alleles

Molecule	XRN (number of supertype alleles bound ≦500 nM) [1, 7]	IC50 [6] [nM]	XRN (number of supertype alleles bound ≦500 nM) [1, 8]	further results
CC[C@H](C)[C@H](NC(=O)[C@@H](NC(=O)[C@H](CC(C)C)NC(=O)[C@@H](NC(=O)[C@H](CCCNC(=N)N)NC(=O)[C@@H](NC(=O)[C@H](CC(C)C)NC(=O)[C@H](CC(C)C)NC(=O)[C@@H](N)Cc1ccccc1)[C@@H](C)O)[C@@H](C)CC)[C@@H](C)O)C(=O)O [env 183]	4			Immunogenicity of the epitope in construct HBV30C ([2]; mouse, in vivo): poorly immunogenic
CC(C)C[C@H](NC(=O)[C@H](CO)NC(=O)[C@H](CC(C)C)NC(=O)[C@@H](N)Cc1c[nH]c2ccccc12)C(=O)N[C@@H](CC(C)C)C(=O)N[C@H](C(=O)N1CCC[C@H]1C(=O)N[C@@H](Cc1ccccc1)C(=O)N[C@H](C(=O)O)C(C)C)C(C)C [env 335]	4			Primary ELISPOT response [3]: approximately 100 SFC/10^6 CD8+ cells
CC(C)C[C@H](NC(=O)[C@H](CC(C)C)NC(=O)[C@H](Cc1c[nH]c2ccccc12)NC(=O)[C@@H]1CCCN1C(=O)[C@H](Cc1ccccc1)NC(=O)[C@H](CO)NC(=O)[C@@H](NC(=O)[C@H](Cc1ccc(O)cc1)NC(=O)[C@@H](N)CCCCN)[C@@H](C)O)C(=O)O [pol 745]				Murine Immunogenicity (SU) [4]: 158.7 SU; Recognition by CTL from HBV-infected individuals [5]: recognized by CTL from HBV-infected individuals
H-YSLNFMGY-OH [pol 580]		382	3	
LTFGRETVLEY [core 137]		80	3	
B1				CTL responses induced by the construct (in words) ([2]; HLA transgenic mice (HLA-A2, -A3/A11; H2^bxd for A24)): CTL responses as vigorous as HBV2
